Test [1] concerns the target mouse TAAR1 (Mus musculus (Mouse), UniProt Q923Y8). Nature of the test: Radioligand binding assay on mouse TAAR1. To be noted: read-out: Ki (μM) mouse. The method in brief:
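Displacement of the tritiated oxazol-2-ylamine radioligand was measured by filtration and scintillation counting after 1 h incubation at 4 °C. Test concentrations ran 10 pM–10 μM in duplicate, with 10 μM cold ligand giving nonspecific binding. The receptor source was membranes of a stable mouse TAAR1 HEK293 line.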

Test [2] deals with rat TAAR1 (Rattus norvegicus (Rat), UniProt Q923Y9). Nature of the test: Radioligand binding assay on rat TAAR1. The note with it: read-out: Ki (μM) rat. The method in brief: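 Membranes from HEK293 cells stably expressing rat TAAR1, with Kd checked per batch by saturation. Competition with ³H-(S)-4-[(ethyl-phenyl-amino)-methyl]-4,5-dihydro-oxazol-2-ylamine, compounds 10 pM–10 μM in duplicate, 1 hr at 4 °C. Filtration then scintillation counting; nonspecific binding defined with 10 μM unlabeled ligand.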

Where [3] appears, read: rat TAAR1, HEK-293 membranes, second value of cell mouse/rat.
[4] abbreviates: mouse TAAR1, HEK-293 membranes, first value of cell mouse/rat.

Counter-ions that a name gives are not always drawn. Like-named read-outs stand apart in the source and are kept apart here.

Sequence of rat TAAR1 (Q923Y9 whole entry): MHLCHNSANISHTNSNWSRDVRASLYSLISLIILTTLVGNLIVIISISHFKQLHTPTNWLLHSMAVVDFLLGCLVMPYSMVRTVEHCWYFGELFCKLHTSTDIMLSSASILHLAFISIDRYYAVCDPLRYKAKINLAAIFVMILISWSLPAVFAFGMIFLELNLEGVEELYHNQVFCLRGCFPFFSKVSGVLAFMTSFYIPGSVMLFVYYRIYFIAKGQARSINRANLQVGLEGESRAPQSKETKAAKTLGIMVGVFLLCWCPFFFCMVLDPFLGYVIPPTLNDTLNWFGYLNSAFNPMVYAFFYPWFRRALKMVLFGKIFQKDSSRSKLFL
Sequence of mouse TAAR1 (Q923Y8 whole entry): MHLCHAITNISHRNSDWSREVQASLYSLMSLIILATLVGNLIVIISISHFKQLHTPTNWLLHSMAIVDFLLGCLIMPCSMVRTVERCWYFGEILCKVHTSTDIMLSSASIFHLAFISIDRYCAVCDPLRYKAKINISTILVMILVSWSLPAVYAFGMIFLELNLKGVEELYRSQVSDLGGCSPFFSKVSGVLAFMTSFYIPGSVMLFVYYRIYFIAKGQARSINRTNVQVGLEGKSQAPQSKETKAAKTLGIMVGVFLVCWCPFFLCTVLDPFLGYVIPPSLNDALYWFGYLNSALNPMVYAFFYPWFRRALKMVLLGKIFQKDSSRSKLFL

As usually defined, the Ki is a dissociation constant, usually derived from enzyme kinetics or from competition with a known ligand. In the case of `O=C(Nc1ccc([C@@H]2CCCNC2)cc1)c1cccc(Cl)c1` [Example 153, (S)-3-Chloro-N-(4-(piperidin-3-yl)phenyl)benzamide hydrochloride], the Ki turned out to be 0.0715 µM in test [1] and 0.0005 µM in test [2] (setting [3]).

As to `O=C(Nc1ccc([C@H]2CCCNC2)cc1)c1ccc(Cl)nc1` [Example 161, (R)-6-Chloro-N-(4-(piperidin-3-yl)phenyl)nicotinamide hydrochloride], the Ki in test [1] is 0.0403 µM; in test [2] (setting [3]), 0.0101 µM.

With `O=C(Nc1ccc([C@@H]2CCCNC2)cc1)c1ccc(Cl)nc1` [Example 162, (S)-6-Chloro-N-(4-(piperidin-3-yl)phenyl)nicotinamide hydrochloride], the results for the Ki in test [1] and in test [2] (setting [3]) were 0.231 µM and 0.0092 µM, respectively.

As for `O=C(Nc1ccc([C@H]2CCCNC2)cc1)c1ccc(Cl)cn1` [Example 167, (R)-5-Chloro-N-(4-(piperidin-3-yl)phenyl)picolinamide hydrochloride], the Ki in test [1] was found to be 0.0271 µM; in test [2] (setting [3]), 0.0048 µM.

For the compound `O=C(Nc1ccc([C@@H]2CCCNC2)cc1)c1ccc(Cl)cn1` [Example 168, (S)-5-Chloro-N-(4-(piperidin-3-yl)phenyl)picolinamide hydrochloride], the Ki in test [1] is 0.608 µM; in test [2] (setting [3]), 0.0026 µM.

Take `Cc1ccc(C(=O)Nc2ccc([C@@H]3CNCCO3)cc2)cc1` [Example 195, (R)-4-Methyl-N-(4-(morpholin-2-yl)phenyl)benzamide hydrochloride]: the figures for the Ki in test [1] (setting [4]) and in test [2] (setting [3]) were 0.0135 µM and 0.0022 µM, respectively.

Regarding `Cc1ccc(C(=O)Nc2ccc([C@H]3CNCCO3)cc2)cc1` [Example 196, (S)-4-Methyl-N-(4-(morpholin-2-yl)phenyl)benzamide hydrochloride], the results for the Ki in test [1] (setting [4]) and in test [2] (setting [3]) were 0.0524 µM and 0.001 µM, respectively.

Turning to `COc1cc(C(=O)Nc2ccc([C@H]3CCCNC3)cc2)ccc1Cl` [Example 200, (R)-4-Chloro-3-methoxy-N-(4-(piperidin-3-yl)phenyl)benzamide hydrochloride], the Ki came out at 0.0039 µM in test [1] (setting [4]) and 0.0022 µM in test [2] (setting [3]).

Take `COc1cc(C(=O)Nc2ccc([C@@H]3CCCNC3)cc2)ccc1Cl` [Example 201, (S)-4-Chloro-3-methoxy-N-(4-(piperidin-3-yl)phenyl)benzamide hydrochloride]: the Ki is 0.113 µM in test [1] (setting [4]) and 0.0022 µM in test [2] (setting [3]).

In the case of `COc1ccc(C(=O)Nc2ccc([C@H]3CCCNC3)cc2)cc1Cl` [Example 202, (R)-3-Chloro-4-methoxy-N-(4-(piperidin-3-yl)phenyl)benzamide hydrochloride], the Ki is 0.0087 µM in test [1] and 0.0015 µM in test [2].

Regarding `COc1ccc(C(=O)Nc2ccc([C@@H]3CCCNC3)cc2)cc1Cl` [Example 203, (S)-3-Chloro-4-methoxy-N-(4-(piperidin-3-yl)phenyl)benzamide hydrochloride], the inhibition constant (Ki) is 0.0603 µM in test [1] and 0.0014 µM in test [2].

As for `O=C(Nc1ccc([C@H]2CCNC2)cc1)c1ccc(OCC(F)(F)F)nc1` [Example 204, (R)—N-(4-(pyrrolidin-3-yl)phenyl)-6-(2,2,2-trifluoroethoxy)nicotinamide hydrochloride], the Ki was 0.005 µM in test [1] (setting [4]) and 0.0043 µM in test [2] (setting [3]).

`O=C(Nc1ccc([C@@H]2CCNC2)cc1)c1ccc(OCC(F)(F)F)nc1` [Example 205, (S)—N-(4-(Pyrrolidin-3-yl)phenyl)-6-(2,2,2-trifluoroethoxy)nicotinamide hydrochloride]: the Ki in test [1] (setting [4]) came out at 0.0034 µM; in test [2] (setting [3]) it was 0.0035 µM.

Regarding `O=C(Nc1ccc([C@@H]2CNCCO2)cc1)c1ccc(Cl)nc1` [Example 207, (R)-6-Chloro-N-(4-(morpholin-2-yl)phenyl)nicotinamide hydrochloride], the inhibition constant (Ki) in test [1] (setting [4]) amounted to 0.0525 µM; in test [2], 0.0042 µM.

For `O=C(Nc1ccc([C@H]2CNCCO2)cc1)c1ccc(Cl)nc1` [Example 208, (S)-6-Chloro-N-(4-(morpholin-2-yl)phenyl)nicotinamide hydrochloride], the Ki in test [1] (setting [4]) is 0.0762 µM; in test [2], 0.0044 µM.

(Values after patent US9452980B2, “Substituted benzamides” (Hoffmann-La Roche Inc., priority 2009, dated 2016).)
